# Data as given in US20090087894A1, “Method for improving enzymatic activity of glycosyltransferases” (Japan Tobacco Inc., priority 2004, published 2009).
# B1: FAJ-N0C0: recombinant full-length α2,3-sialyltransferase of Vibrio sp. JT-FAJ-16 expressed in E. coli (protein)
# chain: MKNIITKRMLIILSSLFTIIGCNNDNSTTTNNNAIEIYVDRATLPTIQQMTKIVSQKTSNKKLISWSRYPITDKSLLKKINAEFFKEQFELTESLKNIILSENIDNLIIHGNTLWSIDVVDIIKEVNLLGKNIPIELHFYDDGSAEYVRIYEFSKLPESEQKYKTSLSKNNIKFSIDGTDSFKNTIENIYGFSQLYPTTYHMLRADIFDTTLKINPLRELLSNNIKQMKWDYFKDFNYKQKDIFYSLTNFNPKEIQEDFNKNSNKNFIFIGSNSATATAEEQINIISEAKKENSSIITNSISDYDLFFKGHPSATFNEQIINAHDMIEINNKIPFEALIMTGILPDAVGGMGSSVFFSIPKEVKNKFVFYKSGTDIENNSLIQVMLKLNLINRDNIKLISDI
# modifications: OTHER INFORMATION: /gene=“FAJ16-23ST” /product=“beta-galactoside-alpha2,3-sialyltransferase”
# notes: recombinant full-length α2,3-sialyltransferase of Vibrio sp; JT-FAJ-16 expressed in E. coli
# B2: 224-N1C0: recombinant JT-ISH-224 α2,3-sialyltransferase lacking the signal peptide region, expressed in E. coli (protein)
# chain: MLVFCKKMFFSVFISLMILGGCNSDSNHNNSDGNITKNKTIEVYVDRATLPTIQQMTQIINENSNNKKLISWSRYPINDEELLESINGSFFKNNSELIKSLDSMILTNDIKKVIINGNTLWAADVVNIIKSIEAFGKKTEIELNFYDDGSAEYVRLYDFSKLPESEQEYKISLSKDNILSSINGTQPFENVVENIYGFSQLYPTTYHMLRADIFETNLPLRSLKGVLSNNIKQMKWDYFKTFNSQQKDKFYNFTGFNPDEIMEQYKASPNKNFIFVGTNSGTATAEQQIDILTEAKNPNSPIITKSIQGFDLFFKGHPSATYNKQIIDAHNMIEIYNKIPFEALIMTDALPDAVGGMGSSVFFSLPNTVENKFIFYKSDTDIENNALIQVMIELNIVNRNDVKLISDLQ
# modifications: OTHER INFORMATION: /gene=“224-23ST” /product=“beta-galactoside-alpha-2,3-sialyltransferase”
# notes: recombinant JT-ISH-224 α2,3-sialyltransferase lacking the signal peptide region, expressed in E. coli
# B3: 467-N2C0: recombinant JT-ISH-467 α2,3-sialyltransferase lacking the signal peptide region, expressed in E. coli (protein)
# chain: MFVFCKKIFFLIFISLMILGGCNSDSKHNNSDGNITKNKTIEVYVDRATLPTIQQMTQIINENSNNKKLISWSRYPINDETLLESINGSFFKNRPELIKSLDSMILTNEIKKVIINGNTLWAVDVVNIIKSIEALGKKTEIELNFYDDGSAEYVRLYDFSRLPESEQEYKISLSKDNIQSSINGTQPFDNSIENIYGFSQLYPTTYHMLRADIFETNLPLTSLKRVISNNIKQMKWDYFTTFNSQQKNKFYNFTGFNPEKIKEQYKASPHENFIFIGTNSGTATAEQQIDILTEAKKPDSPIITNSIQGLDLFFKGHPSATYNQQIIDAHNMIEIYNKIPFEALIMTDALPDAVGGMGSSVFFSLPNTVENKFIFYKSDTDIENNALIQVMIELNIVNRNDVKLISDLQ
# modifications: OTHER INFORMATION: /gene=“467-23ST” /product=“beta-galactoside-alpha2,3-sialyltransferase”
# notes: recombinant JT-ISH-467 α2,3-sialyltransferase lacking the signal peptide region, expressed in E. coli
# B4: 467-N0C0: recombinant full-length α2,3-sialyltransferase of Photobacterium phosphoreum JT-ISH-467 expressed in E. coli (protein)
# chain: MFVFCKKIFFLIFISLMILGGCNSDSKHNNSDGNITKNKTIEVYVDRATLPTIQQMTQIINENSNNKKLISWSRYPINDETLLESINGSFFKNRPELIKSLDSMILTNEIKKVIINGNTLWAVDVVNIIKSIEALGKKTEIELNFYDDGSAEYVRLYDFSRLPESEQEYKISLSKDNIQSSINGTQPFDNSIENIYGFSQLYPTTYHMLRADIFETNLPLTSLKRVISNNIKQMKWDYFTTFNSQQKNKFYNFTGFNPEKIKEQYKASPHENFIFIGTNSGTATAEQQIDILTEAKKPDSPIITNSIQGLDLFFKGHPSATYNQQIIDAHNMIEIYNKIPFEALIMTDALPDAVGGMGSSVFFSLPNTVENKFIFYKSDTDIENNALIQVMIELNIVNRNDVKLISDLQ
# modifications: OTHER INFORMATION: /gene=“467-23ST” /product=“beta-galactoside-alpha2,3-sialyltransferase”
# notes: recombinant full-length α2,3-sialyltransferase of Photobacterium phosphoreum JT-ISH-467 expressed in E. coli
# Assays:
# [1] = target: T1, deletion mutant of recombinant α2,6-sialyltransferase; N2C1, derived from P. damselae JT0160 (Photobacterium damselae, UniProt O66375); test: Effect of NaCl on enzyme activity of deletion mutant of recombinant α2,6-sialyltransferase N2C1; assay type: biochemical; details: 0.2 to 1.5 M NaCl in the reaction solution; FIG. 4
# T1 construct: lacks the N-terminal (Met) 107 amino acid residues and the C-terminal 176 amino acid residues; made in house; host or cells: E. coli, crude enzyme solution
# T1 sequence (O66375 entry or part of it, stated change not applied): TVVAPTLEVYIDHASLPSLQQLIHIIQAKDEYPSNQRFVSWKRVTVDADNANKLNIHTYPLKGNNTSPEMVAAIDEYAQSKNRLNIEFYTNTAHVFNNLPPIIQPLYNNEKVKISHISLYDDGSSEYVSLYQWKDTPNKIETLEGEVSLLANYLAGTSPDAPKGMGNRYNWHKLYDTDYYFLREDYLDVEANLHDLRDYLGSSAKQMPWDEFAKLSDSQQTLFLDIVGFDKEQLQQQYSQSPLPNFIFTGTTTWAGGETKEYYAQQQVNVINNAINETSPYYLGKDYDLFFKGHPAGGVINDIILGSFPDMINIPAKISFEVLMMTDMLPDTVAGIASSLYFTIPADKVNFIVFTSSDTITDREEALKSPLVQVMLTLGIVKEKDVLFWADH
# Method: The transformed E. coli cells were cultured at 30° C. at 180 rpm for 12 hours in L Broth (containing ampicillin at a final concentration of 0.2 mg/ml and IPTG at a final concentration of 1 mM), followed by centrifugation to collect the cells. The collected cells were suspended in 20 mM sodium cacodyrate buffer (pH 5.0) and then ultrasonicated at 4° C. to homogenize the cells, thereby preparing a crude enzyme solution containing a sialyltransferase protein from the N2C1 gene. […] This N2C1 gene-derived sialyltransferase protein was used in the following experiment.
# The enzyme reaction was accomplished in 20 μl reaction solution containing CMP-^14C-NeuAc as a glycosyl donor substrate (50.066 nmol, 25000 cpm), lactose as a glycosyl acceptor substrate (1 mmol), N2C1 (0.5 to 1.5 mU) and NaCl at a concentration varying from 0 to 2.5 M (30° C., 1 minute). After completion of the enzyme reaction, the radioactivity of NeuAc which was transferred to lactose under the respective conditions was measured to calculate the enzyme activity, thereby studying the effect of NaCl on the enzyme activity in each test range.
# More specifically, after completion of the reaction, each reaction solution was supplemented with 1.98 ml of 5 mM phosphate buffer (pH 6.8) and applied to a AG1−×2Resin (PO43-form, 0.2×2 cm) column. […] The eluate (0 to 2 ml) from this column was measured for its radioactivity.
# [2] = system: glycosyltransferase (crude α2,6-sialyltransferase) of P. damsela ATCC35083; test: Effect of NaCl on activity of crude α2,6-sialyltransferase from P. damselae ATCC35083; assay type: biochemical, Photobacterium damselae
# Method: (§1) ATCC33539T and ATCC35083, which were strains belonging to Photobacterium damselae but different from JT0160, were cultured and the resulting cells were used to prepare crude enzyme solutions according to the procedure for preparing a crude enzyme solution of P. damselae JT0160 (Purification and characterization of a Marine bacterial β-Galactoside α2,6-Sialyltransferase from Photobacterium damselae JT0160 J. Biochem. 120, 104-110, 1996). These crude enzymes were used in the following experiment.
# (§2) The enzyme reaction was accomplished in 20 μl reaction solution containing CMP-^14C-NeuAc as a glycosyl donor substrate (50.066 nmol, 25000 cpm), lactose as a glycosyl acceptor substrate (1 mmol), glycosyltransferase derived from various strains (1 mU or less) and NaCl at a concentration of 0.5 M (30° C., 1 minute). After completion of the enzymatic reaction, the radioactivity of NeuAc which was transferred to lactose under the respective conditions was measured to calculate the enzyme activity, thereby studying the effect of NaCl on the enzyme activity in each test range. More specifically, after completion of the reaction, each reaction solution was supplemented with 1.98 ml of 5 mM phosphate buffer (pH 6.8) and applied to a AG1−×2Resin (PO4^3− form, 0.2×2 cm) column. […] The eluate (0 to 2 ml) from this column was measured for its radioactivity.
# [3] = system: glycosyltransferase (crude α2,6-sialyltransferase) of P. damsela ATCC33539; test: Effect of NaCl on activity of crude α2,6-sialyltransferase from P. damselae ATCC33539; assay type: biochemical, Photobacterium damselae
# Method: as §1, §2
# [4] = Confirmation of α2,3-sialyltransferase activity with pyridylaminated lactose as glycosyl acceptor, HPLC; assay type: biochemical; details: pyridylaminated lactose and CMP-sialic acid, 25° C.
# From the text: Determination of the binding mode of sialic acid was accomplished by using a pyridylaminated sugar chain. The resulting enzyme was used to carry out an enzymatic reaction in the presence of a pyridylaminated sugar chain as a glycosyl acceptor substrate. The pyridylaminated sugar chain used for analysis was pyridylaminated lactose (Galβ1, 4Glc-PA, PA-Sugar Chain 026, Takara Bio Inc., Japan). As a standard, pyridylaminated α2,3sialyllactose (NeuAcα2,3Galβ1, 4Glc-PA, PA-Sugar Chain 029, Takara Bio Inc., Japan) was used. The glycosyl acceptor substrate, CMP-NeuAc and the enzyme were dissolved at 2.0 mM, 5.7 μM and about 20 mU/ml, respectively, in 25 μl of 20 mM cacodylate buffer (pH 6.0) or Bis-Tris buffer (pH 6.0), and then reacted at 25° C. for 3 to 18 hours. After completion of the reaction, the reaction solution was treated at 100° C. for 2 minutes to deactivate the enzyme, followed by HPLC to analyze the reaction product.
# The HPLC system used was, Shimadzu LC10A (Shimadzu Corporation, Japan) and the analytical column used was Takara PALPAK Type R (Takara Bio Inc., Japan). The column which had been equilibrated with 100 mM acetate-triethylamine (pH 5.0) containing 0.15% N-butanol was injected with the reaction solution diluted with Eluent A (100 mM acetate-triethylamine, pH 5.0). For elution of the pyridylaminated sugar chain, Eluent A (100 mM acetate-triethylamine, pH 5.0) and Eluent B (100 mM acetate-triethylamine containing 0.5% n-butanol, pH 5.0) were used to successively elute the pyridylaminated sugar chain with a linear gradient of 30% to 100% Eluent B (0 to 35 minutes) and then 100% Eluent B (35 to 50 minutes). The analysis was performed under the following conditions: flow rate: 1 ml/min, column temperature: 40° C., detection: fluorescence (Ex: 320 nm, Em: 400 nm).
# As in the case of Reference Example 1-1, pyridylaminated lactose was used as a glycosyl acceptor to carry out the enzyme reaction. After completion of the reaction, the reaction solution was thermally treated at 95° C. for 5 minutes to deactivate the enzyme, followed by HPLC analysis. It should be noted that the enzyme reaction was accomplished at 25° C. for 6 hours using pyridylaminated lactose and CMP-sialic acid dissolved at 2.0 μM and 5.7 μM, respectively, in 25 μl of 20 mM cacodylate buffer (pH 6.0) (Reaction 1). On the other hand, a control experiment (Reaction 2) was carried out using a reaction solution free from CMP-sialic acid. Further, to clarify the retention time of standards, the crude enzyme solution was deactivated by thermal treatment (95° C., 5 minutes) and tested in the presence of pyridylaminated lactose and pyridylaminated α2,3-sialyllactose.
molecule,measurement,setting,value
[Cl-].[Na+] [NaCl],enzyme activity compared to the absence of NaCl,[1],activated
same,Radioactivity,"[2]; +NaCl, 0.5 M, 30° C., 1 minute",9733
same,+NaCl/−NaCl,[2]; NaCl 0.5 M,1.3
same,Radioactivity,"[3]; +NaCl, 0.5 M, 30° C., 1 minute",11071
same,+NaCl/−NaCl,[3]; NaCl 0.5 M,1.2
B1,"α2,3-sialyltransferase activity (formation of pyridylaminated α2,3-sialyllactose)",[4],"a peak of pyridylaminated α2,3-sialyllactose was detected"
B2,"α2,3-sialyltransferase activity (formation of pyridylaminated α2,3-sialyllactose)",[4],"a peak of pyridylaminated α2,3-sialyllactose was detected"
B3,"α2,3-sialyltransferase activity (formation of pyridylaminated α2,3-sialyllactose)",[4],"had α2,3-sialyltransferase activity"
B4,"α2,3-sialyltransferase activity (formation of pyridylaminated α2,3-sialyllactose)",[4],"found to have α2,3-sialyltransferase activity"
